According to the Kinase Knowledgebase extract (Sharma et al. 2016):

Tests used:
[1] = target: EGFR (human), P00533 [Inhibition of Proliferation of EGFR(WT, k-Ras mutation) in A549 Cells]
[2] = target: EGFR (human) (UniProt P00533); conditions: a431
[3] = target: EGFR (human), P00533 [WT]; conditions: hl-7702
[4] = target: EGFR (Human), P00533 [T790M/L858R]; conditions: h1975
EGFR (Human), P00533 [T790M/L858R], sequence (P00533 whole entry T790M/L858R, looked up): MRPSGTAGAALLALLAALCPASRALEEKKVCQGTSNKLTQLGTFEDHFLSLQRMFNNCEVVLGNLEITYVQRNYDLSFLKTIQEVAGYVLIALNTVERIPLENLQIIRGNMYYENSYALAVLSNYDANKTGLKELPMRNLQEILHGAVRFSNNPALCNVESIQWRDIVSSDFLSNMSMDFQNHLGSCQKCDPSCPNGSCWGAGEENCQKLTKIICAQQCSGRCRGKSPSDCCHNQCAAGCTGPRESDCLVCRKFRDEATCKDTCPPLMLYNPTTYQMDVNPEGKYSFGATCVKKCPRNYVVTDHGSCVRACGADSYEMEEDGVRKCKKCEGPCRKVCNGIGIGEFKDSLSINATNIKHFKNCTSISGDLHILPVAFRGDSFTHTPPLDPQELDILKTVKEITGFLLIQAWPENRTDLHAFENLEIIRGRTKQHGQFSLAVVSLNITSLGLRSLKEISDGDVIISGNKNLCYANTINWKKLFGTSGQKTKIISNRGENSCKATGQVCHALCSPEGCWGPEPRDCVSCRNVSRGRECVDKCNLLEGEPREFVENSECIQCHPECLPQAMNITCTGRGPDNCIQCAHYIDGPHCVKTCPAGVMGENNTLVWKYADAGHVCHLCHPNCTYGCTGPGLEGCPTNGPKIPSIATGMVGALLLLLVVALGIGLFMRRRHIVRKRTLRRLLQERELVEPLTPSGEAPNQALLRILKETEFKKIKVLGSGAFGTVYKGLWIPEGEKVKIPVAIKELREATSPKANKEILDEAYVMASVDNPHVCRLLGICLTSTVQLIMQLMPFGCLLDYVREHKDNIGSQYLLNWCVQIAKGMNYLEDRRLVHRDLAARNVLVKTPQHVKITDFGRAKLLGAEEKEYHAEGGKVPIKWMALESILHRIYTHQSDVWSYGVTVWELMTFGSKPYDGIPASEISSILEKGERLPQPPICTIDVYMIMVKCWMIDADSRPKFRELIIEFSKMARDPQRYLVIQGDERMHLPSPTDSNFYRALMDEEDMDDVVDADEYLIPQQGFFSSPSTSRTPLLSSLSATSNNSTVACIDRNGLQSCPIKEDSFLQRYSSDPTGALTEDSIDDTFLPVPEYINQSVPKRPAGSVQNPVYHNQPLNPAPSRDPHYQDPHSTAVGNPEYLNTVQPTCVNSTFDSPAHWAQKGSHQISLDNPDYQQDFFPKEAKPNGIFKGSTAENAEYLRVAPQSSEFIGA

EGFR (human), sequence (P00533 whole entry, looked up): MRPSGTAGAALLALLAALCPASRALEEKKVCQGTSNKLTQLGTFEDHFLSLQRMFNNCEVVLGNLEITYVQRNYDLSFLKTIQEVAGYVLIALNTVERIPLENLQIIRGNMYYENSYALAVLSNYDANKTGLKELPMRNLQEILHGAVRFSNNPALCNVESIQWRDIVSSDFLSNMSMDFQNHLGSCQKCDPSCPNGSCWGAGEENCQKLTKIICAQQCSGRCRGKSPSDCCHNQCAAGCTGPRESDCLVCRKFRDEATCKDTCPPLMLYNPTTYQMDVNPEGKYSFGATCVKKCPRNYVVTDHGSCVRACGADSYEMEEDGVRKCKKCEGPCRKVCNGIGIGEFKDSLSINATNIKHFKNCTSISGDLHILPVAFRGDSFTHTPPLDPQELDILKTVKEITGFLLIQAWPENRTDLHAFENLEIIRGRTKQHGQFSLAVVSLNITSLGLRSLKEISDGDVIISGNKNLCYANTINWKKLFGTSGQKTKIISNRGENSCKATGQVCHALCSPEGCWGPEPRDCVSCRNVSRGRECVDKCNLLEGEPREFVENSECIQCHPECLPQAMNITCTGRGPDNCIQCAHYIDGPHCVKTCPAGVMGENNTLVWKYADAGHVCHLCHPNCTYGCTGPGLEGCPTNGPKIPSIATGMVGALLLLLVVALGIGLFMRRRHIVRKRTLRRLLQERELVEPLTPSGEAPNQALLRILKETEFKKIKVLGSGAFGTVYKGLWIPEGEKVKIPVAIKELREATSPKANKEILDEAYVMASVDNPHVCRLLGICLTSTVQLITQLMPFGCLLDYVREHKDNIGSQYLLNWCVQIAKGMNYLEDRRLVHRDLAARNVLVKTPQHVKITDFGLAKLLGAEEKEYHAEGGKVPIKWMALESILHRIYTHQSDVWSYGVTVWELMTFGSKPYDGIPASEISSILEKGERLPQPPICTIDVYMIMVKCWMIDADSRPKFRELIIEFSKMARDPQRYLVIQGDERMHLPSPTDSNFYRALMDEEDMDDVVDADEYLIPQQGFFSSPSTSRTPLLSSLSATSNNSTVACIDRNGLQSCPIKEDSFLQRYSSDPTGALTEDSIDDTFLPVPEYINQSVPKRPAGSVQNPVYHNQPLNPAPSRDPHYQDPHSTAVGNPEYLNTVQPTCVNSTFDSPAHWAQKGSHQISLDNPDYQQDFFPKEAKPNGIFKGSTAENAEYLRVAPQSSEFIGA
EGFR (human), P00533 [WT], sequence (P00533 whole entry, looked up): as above
EGFR (human), P00533 [Inhibition of Proliferation of EGFR(WT, k-Ras mutation) in A549 Cells], sequence (P00533 whole entry, looked up, change not shown): as the sequence (P00533 whole entry, looked up) above

Structure (SMILES) | IC50 [1] [µM] | IC50 [2] [µM] | IC50 [3] [µM] | IC50 [4] [µM]
CCC(=O)Nc1cccc(N2C(=O)N(C)Cc3cnc(Nc4ccc(N5CCN(C)CC5)cc4OC)nc32)c1 | > 30 | > 10 | > 10 | > 20
C=CC(=O)Nc1cccc(N2C(=O)N(C)Cc3cnc(Nc4ccc(N(C)C)cc4OC)nc32)c1 | > 20 |  | > 10 | 
C=CC(=O)Nc1cccc(N2C(=O)N(C)Cc3cnc(NC)nc32)c1 | > 20 | > 10 | > 10 | 
C=CC(=O)Nc1cccc(N2C(=O)N(C)Cc3cnc(Nc4ccc(N5CCC(N(C)C)CC5)cc4OC)nc32)c1 |  |  | > 10 | 
C=CC(=O)Nc1cccc(N2C(=O)N(C(C)C)Cc3cnc(Nc4ccc(N5CCN(C)CC5)cc4OC)nc32)c1 |  |  | > 10 | 
C=CC(=O)Nc1cccc(N2C(=O)N(C)Cc3cnc(Nc4ccc(N5CCN(C)CC5)cc4OCC)nc32)c1 |  |  | > 10 | 
C=CC(=O)Nc1cccc(N2C(=O)N(C)Cc3cnc(Nc4ccc(N5CCN(C)CC5)cc4F)nc32)c1 |  | > 10 |  | 
C=CC(=O)Nc1cccc(N2C(=O)N(C)Cc3cnc(Nc4ccc(N5CCOCC5)cc4OC)nc32)c1 |  | > 10 | > 10 | 
C=CC(=O)Nc1cccc(N2C(=O)N(C)Cc3cnc(Nc4ccccc4)nc32)c1 |  |  | > 10 | 
C=CC(=O)Nc1cccc(N2C(=O)N(c3ccc(Oc4ccccc4)cc3)Cc3cnc(Nc4ccc(N5CCN(C)CC5)cc4OC)nc32)c1 |  |  | > 10 | 
C=CC(=O)Nc1cccc(N2C(=O)N(C)Cc3cnc(Nc4ccc(N5CCN(C)CC5)cc4C)nc32)c1 |  |  | > 10 | 
C=CC(=O)Nc1cccc(N2C(=O)N(C)Cc3cnc(Nc4ccc(N5CCCN(C)CC5)cc4OC)nc32)c1 | > 20 |  | > 10 | 
COc1cc(N2CCN(C)CC2)ccc1Nc1ncc2c(n1)N(c1cccc(N)c1)C(=O)N(C)C2 |  | > 10 | > 10 | > 20
C=CC(=O)Nc1cccc(N2C(=O)N(C)Cc3cnc(Nc4ccc(N5CCCCC5)cc4OC)nc32)c1 |  |  | > 10 | 
C=CC(=O)Nc1cccc(N2C(=O)N(C)Cc3cnc(Nc4ccc(N5CCN(C)CC5)cc4OC)nc32)c1 |  |  | > 10 | 
C=CC(=O)Nc1cccc(N2C(=O)N(C)Cc3cnc(Nc4ccc(N5CCN(C)CC5)cc4OC(C)C)nc32)c1 |  |  | > 10 | 
